How the values were obtained:
[1] = neutralization of reactive species and inhibition of lipid peroxidation; assay type: biochemical
mitochondrial ROS = mitochondrial ROS and mitochondrial function in cellular and animal studies; assay type: cell-based
Excerpt: These examples identify “druggable” chemical compounds that can reduce mitochondrial oxidative stress and protect mitochondrial function. As mitochondria are the major source of intracellular reactive oxygen species (ROS), the antioxidant must be delivered to mitochondria in order limit oxidative damage to mitochondrial DNA, proteins of the electron transport chain (ETC), and the mitochondrial lipid membranes. We discovered a family of synthetic aromatic-cationic tetrapeptides that selectively target and concentrate in the inner mitochondrial membrane (IMM). Some of these peptides contain redox-active amino acids that can undergo one-electron oxidation and behave as mitochondria-targeted antioxidants. […] Although radical scavenging is the most commonly used approach to reduce oxidative stress, there are other potential mechanisms that can be used, including facilitation of electron transfer to reduce electron leak and improved mitochondrial reduction potential.

[2] = tested on: animal models of ischemia-reperfusion injury, neurodegenerative diseases, and metabolic syndrome; assay: animal models of ischemia-reperfusion injury, neurodegenerative diseases, and metabolic syndrome; assay type: in vivo
cytochrome c (cyt c) = cytochrome c (cyt c) (Homo sapiens, UniProt P99999); assay: kinetics of cyt c reduction monitored by absorbance spectroscopy (A550); assay type: biochemical; conditions: for cyt c reduction by peptide alone: peptide alone at 100 μM, no reducing agent
Protocol: FIG. 1 is a chart showing that the peptide D-Arg-Dmt-Lys-Phe-NH2 increases the rate of cytochrome c (cyt c) reduction. Reduced cyt c was measured by absorbance at 550 nm. […] The peptide alone at 100 μM had no effect.
We hypothesize that the distribution of aromatic cationic peptides among the protein complexes in the IMM allows it to serve as additional relay stations to facilitate ET. In support of this hypothesis, we have used the kinetics of cyt c reduction (monitored by absorbance spectroscopy) as a simple model system to determine if the peptide D-Arg-2′6′-Dmt-Lys-Phe-NH2 can facilitate ET.

[3] = tested on: renal ischemia-reperfusion (IR) injury; assay: restoration of mitochondrial respiration and ATP synthesis following renal ischemia-reperfusion (IR) injury; assay type: in vivo; conditions: rats, 2.0 mg/kg sc 30 min before ischemia and at reperfusion; for state 3 respiration (oxygen consumption) in isolated renal mitochondria: 45 min bilateral renal artery occlusion, 20 min reperfusion, p<0.01; for ATP content (ATP synthesis) in rat kidney: 45 min ischemia, 1 h after IR injury, P<0.05
Protocol: FIG. 2 is a chart showing treatment with D-Arg-Dmt-Lys-Phe-NH2 increased state 3 respiration in isolated renal mitochondria after 20 min IR injury (p<0.01).
FIG. 3 is a chart showing that treatment with D-Arg-Dmt-Lys-Phe-NH2 increased ATP content in rat kidney at 1 h after IR injury (P<0.05).
Preliminary studies further support our hypothesis that D-Arg-2′6′-Dmt-Lys-Phe-NH2 can facilitate ET and improve ATP synthesis in vivo. We have examined the effect of this peptide on restoration of mitochondrial respiration and ATP synthesis following ischemia-reperfusion (IR) injury in rats. Rats were subjected to bilateral occlusion of renal artery for 45 min followed by 20 min or 1 h reperfusion. Rats received saline or peptide (2.0 mg/kg sc) 30 min before ischemia and again at the time of reperfusion (n=4-5 in each group).

[4] = listed as D-Arg-2′6′-Dmt-Lys-Phe-NH2, 2 mg/kg

Sequence of cytochrome c (cyt c) (P99999 whole entry, species assumed): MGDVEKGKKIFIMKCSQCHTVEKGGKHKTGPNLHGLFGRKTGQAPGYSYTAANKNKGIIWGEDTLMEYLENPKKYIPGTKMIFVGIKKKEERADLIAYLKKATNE

For D-Arg-2′6′-Dmt-Tyr-Lys-Phe-NH2, the lipid peroxidation [1] was “inhibit”, the “neutralization of H2O2” value [1] was “can neutralize” and the “neutralization of hydroxyl radical” value [1] was “can neutralize”. The neutralization of peroxynitrite [1] was “can neutralize”, the oral bioavailability was “limited by degradation in intestinal fluids” and the “mitochondrial ROS” value (mitochondrial ROS; cellular and animal studies) was “reduces”. The mitochondrial function (mitochondrial ROS; cellular and animal studies) was “protect”, the “protection against mitochondrial oxidative stress” value (mitochondrial ROS; compared with mitochondrial catalase overexpression) was “comparable to that observed with mitochondrial catalase overexpression” and the “efficacy in animal models” value [2] was “remarkable efficacy”.
For “D-Arg-2′6′-Dmt-Lys-Phe-NH2 [D-Arg-Dmt-Lys-Phe-NH2]”, the “rate of NAC-induced cyt c reduction” value (cytochrome c (cyt c); 40 μM NAC as reducing agent, absorbance at 550 nm) was “dose-dependently increased”, the “cyt c reduction by peptide alone” value (cytochrome c (cyt c)) was “had no effect” and the “cyt c reduction by peptide alone” value (cytochrome c (cyt c); listed as D-Arg-2′6′-Dmt-Lys-Phe-NH2) was “did not reduce cyt c”. The “state 3 respiration (oxygen consumption) in isolated renal mitochondria” value ([3]; 2 mg/kg) was “increased”, the “state 3 respiration (oxygen consumption) in isolated renal mitochondria” value [3, 4] was “improved” and the “ATP content (ATP synthesis) in rat kidney” value ([3]; 2 mg/kg) was “increased”. For the same substance, the “ATP content (ATP synthesis) in rat kidney” value [3, 4] was “improved”.
